From patent publication US20250081967A1, “PESTICIDALLY ACTIVE HETEROCYCLIC DERIVATIVES WITH SULFOXIMINE CONTAINING SUBSTITUENTS” (SYNGENTA CROP PROTECTION AG, priority 2021, published 2025)

What was measured:
Assay type in all cases: in vivo
[1] = tested on: Bemisia tabaci; experiment: Activity against Bemisia tabaci (cotton white fly), cotton leaf discs; conditions: for mortality at 200 ppm: foliar, 144 h, application rate 200 ppm, adult white flies, 6 days after incubation
Experimental: Example B6: Activity Against Bemisia tabaci (Cotton White Fly)
Cotton leaf discs were placed on agar in 24-well microtiter plates and sprayed with aqueous test solutions prepared from 10′000 ppm DMSO stock solutions. After drying the leaf discs were infested with adult white flies. The samples were checked for mortality 6 days after incubation.

[2] = tested on: Frankliniella occidentalis; experiment: Activity against Frankliniella occidentalis (western flower thrips), sunflower leaf discs; conditions: foliar, 168 h, application rate 200 ppm, mixed ages, 7 days after infestation
Experimental: Example B8: Activity Against Frankliniella occidentalis (Western Flower Thrips)
Sunflower leaf discs were placed on agar in 24-well microtiter plates and sprayed with aqueous test solutions prepared from […] stock solutions. After drying the leaf discs were infested with a Frankliniella population of mixed ages. The samples were assessed for mortality 7 days after infestation.

[3] = tested on: Plutella xylostella; experiment: Activity against Plutella xylostella (diamond back moth), artificial diet, L2 larvae; conditions: 120 h, application rate 200 ppm, 5 days after infestation, read-out: effect in at least one of the two categories (mortality or growth inhibition)
Experimental: Example B2: Activity Against Plutella xylostella (Diamond Back Moth)
(§1) 24-well microtiter plates with artificial diet were treated with aqueous test solutions prepared from 10′000 ppm DMSO stock solutions by pipetting. After drying, the plates were infested with L2 larvae (10 to 15 per well). The samples were assessed for mortality and growth inhibition in comparison to untreated samples 5 days after infestation.

[4] = tested on: Spodoptera littoralis; experiment: Activity against Spodoptera littoralis (Egyptian cotton leaf worm), cotton leaf discs; conditions: foliar, 72 h, application rate 200 ppm, L1 larvae, 3 days after infestation, read-out: control (mortality, anti-feeding effect or growth inhibition)
Procedure, shortened: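 Cotton leaf discs on agar sprayed with aqueous test solutions made from 10′000 ppm DMSO stocks, dried, then infested with five L1 larvae. Mortality, anti-feeding and growth inhibition scored versus untreated samples 3 days after infestation; control given when any category exceeds untreated.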

[5] = tested on: Myzus persicae; experiment: Activity against Myzus persicae (green peach aphid), systemic activity, pea seedlings; conditions: Myzus persicae
Experimental: Example B5: Activity Against Myzus persicae (Green Peach Aphid) Systemic Activity
Roots of pea seedlings infested with an aphid population of mixed ages were placed directly in the aqueous test solutions prepared from 10′000 DMSO stock solutions. The samples were assessed for mortality 6 days after placing seedlings in test solutions.

[6] = tested on: Myzus persicae; experiment: Activity against Myzus persicae (green peach aphid), feeding/contact activity, sunflower leaf discs; conditions: for mortality at 200 ppm: Myzus persicae, foliar, 144 h, application rate 200 ppm, feeding/contact, 6 days after infestation; for Mortality (%): Myzus persicae (feeding/contact)
Experimental: Example B4: Activity Against Myzus persicae (Green Peach Aphid) Feeding/Contact Activity
Sunflower leaf discs were placed on agar in a 24-well microtiter plate and sprayed with aqueous test solutions prepared from 10′000 ppm DMSO stock solutions. After drying, the leaf discs were infested with an aphid population of mixed ages. The samples were assessed for mortality 6 days after infestation.

[7] = tested on: Diabrotica balteata; experiment: Activity against Diabrotica balteata (corn root worm), maize sprouts; conditions: for percent effect (mortality or growth inhibition) at 200 ppm: 96 h, application rate 200 ppm, L2 larvae, 4 days after infestation, read-out: effect in at least one of the two categories (mortality or growth inhibition)
Experimental: Example B3: Activity Against Diabrotica Balteata (Corn Root Worm)
as §1, with “Maize sprouts placed onto an agar layer in 24-well” for “24-well”, “plates” for “plates with artificial diet”, “spraying.” for “pipetting.”, “(6” for “(10”, “10” for “15”, “4” for “5”

[8] = tested on: Euschistus heros; experiment: Activity against Euschistus heros (neotropical brown stink bug), soybean leaf; conditions: 120 h, application rate 200 ppm, N-2 nymphs, 5 days after infestation, read-out: effect in at least one of the two categories (mortality or growth inhibition)
Experimental: Example B7: Activity Against Euschistus heros (Neotropical Brown Stink Bug)
Soybean leaf on agar in 24-well microtiter plates were sprayed with aqueous test solutions prepared from 10′000 ppm DMSO stock solutions. After drying the leaf were infested with N-2 nymphs. The samples were assessed for mortality and growth inhibition in comparison to untreated samples 5 days after infestation.

[9] = tested on: Plutella xylostella; experiment: Activity against Plutella xylostella (diamond back moth), artificial diet, eggs; conditions: 192 h, application rate 200 ppm, 8 days after infestation, read-out: effect in at least one of the two categories (mortality or growth inhibition)
Procedure, shortened: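 Artificial diet in wells treated with aqueous dilutions of 10′000 ppm DMSO stocks, dried, then infested with Plutella eggs. Mortality and growth inhibition scored against untreated samples 8 days after infestation.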

[10] = tested on: Chilo suppressalis; experiment: Activity against Chilo suppressalis (striped rice stemborer), artificial diet; conditions: 144 h, application rate 200 ppm, L2 larvae, 6 days after infestation
Experimental: Example B11: Activity Against Chilo suppressalis (Striped Rice Stemborer)
as §1, with “(6-8” for “(10 to 15”, “mortality, anti-feeding effect,” for “mortality”, “6” for “5”, “infestation. Control of Chilo suppressalis by a test sample is given when at least one of the categories mortality, anti-feedant effect, and growth inhibition is higher than the untreated sample.” for “infestation.”

[11] = 144 h, test rate 24 ppm, systemic, 6 days after placing seedlings in test solutions

Row | Compound | mortality at 200 ppm [1] | mortality at 200 ppm [2] | mortality at 24 ppm [5, 11] | mortality at 200 ppm [6] | percent effect (mortality or growth inhibition) at 200 ppm [9] | percent control (mortality, anti-feedant effect or growth inhibition) at 200 ppm [10] | also measured
1 | CCS(=N)(=O)c1cc(OC(C)(C)C#N)cnc1-c1nc2cc(C(F)(F)F)n(C3CC3)c(=O)c2n1C (racemic) [Compound P1, 2-[[6-[5-cyclopropyl-3-methyl-4-oxo-6-(trifluoromethyl)imidazo[4,5-c]pyridin-2-yl]-5-(ethylsulfonimidoyl)-3-pyridyl]oxy]-2-methyl-propanenitrile] | ≥ 80% | ≥ 80% | ≥ 80% | ≥ 80% | – | – | percent effect (mortality or growth inhibition) at 200 ppm [3]: ≥ 80%; percent control (mortality, anti-feedant effect or growth inhibition) at 200 ppm [4]: ≥ 80%; percent effect (mortality or growth inhibition) at 200 ppm [7]: ≥ 80%; percent effect (mortality or growth inhibition) at 200 ppm [8]: ≥ 80%
2 | CCS(=N)(=O)c1cc(OC(C)(C)C#N)cnc1-c1cn2cnc(C(F)(F)F)cc2n1 (single isomer, unassigned) [Compound P11-A, 2-[[5-(ethylsulfonimidoyl)-6-[7-(trifluoromethyl)imidazo[1,2-c]pyrimidin-2-yl]-3-pyridyl]oxy]-2-methyl-propanenitrile] | – | ≥ 80% | ≥ 80% | ≥ 80% | ≥ 80% | – | mortality at 24 ppm ([5]; Myzus persicae (systemic), concentration 24 ppm): 100%; percent effect (mortality or growth inhibition) at 200 ppm [7]: ≥ 80%
3 | CCn1c(C(F)(F)F)cc2nc(-c3ncc(OC(C)(C)C#N)cc3S(=N)(=O)CC)n(C)c2c1=O (single isomer, unassigned) [Compound P19-B, 2-[[6-[5-ethyl-3-methyl-4-oxo-6-(trifluoromethyl)imidazo[4,5-c]pyridin-2-yl]-5-(ethylsulfonimidoyl)-3-pyridyl]oxy]-2-methyl-propanenitrile] | – | ≥ 80% | – | – | – | – | –
4 | CCS(=N)(=O)c1cc(C2(C#N)CC2)cnc1-c1nc2cc(C(F)(F)F)n(OC)c(=O)c2n1C (single isomer, unassigned) [Compound P8-B, 1-[5-(ethylsulfonimidoyl)-6-[5-methoxy-3-methyl-4-oxo-6-(trifluoromethyl)imidazo[4,5-c]pyridin-2-yl]-3-pyridyl]cyclopropanecarbonitrile] | – | – | – | – | ≥ 80% | ≥ 80% | –
5 | CCS(=N)(=O)c1cc(OC(C)(C)C#N)cnc1-c1nc2cc(C(F)(F)F)ncc2n1C (single isomer, unassigned) [Compound P13-B, 2-[[5-(ethylsulfonimidoyl)-6-[3-methyl-6-(trifluoromethyl)imidazo[4,5-c]pyridin-2-yl]-3-pyridyl]oxy]-2-methyl-propanenitrile] | – | – | – | – | – | ≥ 80% | percent control (mortality, anti-feedant effect or growth inhibition) at 200 ppm [4]: ≥ 80%; Mortality (%) ([6]; concentration 12.5 ppm): 100%; Mortality (%) ([7]; concentration 50 ppm): 100%
6 | CCS(=N)(=O)c1cc(C2(C#N)CC2)ccc1-c1nc2cc(C(F)(F)F)cnc2n1C (single isomer, unassigned) [Compound P6-A, 1-[3-(ethylsulfonimidoyl)-4-[3-methyl-6-(trifluoromethyl)imidazo[4,5-b]pyridin-2-yl]phenyl]cyclopropanecarbonitrile] | ≥ 80% | – | ≥ 80% | ≥ 80% | – | ≥ 80% | mortality at 6 ppm ([5]; Myzus persicae (systemic), concentration 6 ppm): 80%; percent effect (mortality or growth inhibition) at 200 ppm [7]: ≥ 80%; mortality at 50 ppm ([7]; concentration 50 ppm): 80%
7 | CCS(=N)(=O)c1cc(OC(C)(C)C#N)cnc1-c1cn2cnc(SC(F)(F)F)cc2n1 (single isomer, unassigned) [Compound P7-B, 2-[[5-(ethylsulfonimidoyl)-6-[7-(trifluoromethylsulfanyl)imidazo[1,2-c]pyrimidin-2-yl]-3-pyridyl]oxy]-2-methyl-propanenitrile] | – | ≥ 80% | – | – | ≥ 80% | – | Mortality (%) ([1]; concentration 50 ppm): 80%
8 | CCS(=N)(=O)c1cc(C2(C#N)CC2)cnc1-c1nc2cc(C(F)(F)F)ncc2n1C (single isomer, unassigned) [Compound P10-B, 1-[5-(ethylsulfonimidoyl)-6-[3-methyl-6-(trifluoromethyl)imidazo[4,5-c]pyridin-2-yl]-3-pyridyl]cyclopropanecarbonitrile] | – | – | – | – | – | ≥ 80% | Mortality (%) ([1]; concentration 12.5 ppm): 100%; Mortality (%) ([6]; concentration 0.781 ppm): 80%
9 | CCS(=N)(=O)c1cc(C2(C#N)CC2)cnc1-c1nc2cc(C(F)(F)F)nnc2n1C (single isomer, unassigned) [Compound P2-A, 1-[5-(ethylsulfonimidoyl)-6-[7-methyl-3-(trifluoromethyl)imidazo[4,5-c]pyridazin-6-yl]-3-pyridyl]cyclopropanecarbonitrile] | ≥ 80% | – | ≥ 80% | ≥ 80% | – | ≥ 80% | Mortality (%) ([6]; concentration 3.125 ppm): 100%
10 | CCn1c(C(F)(F)F)cc2nc(-c3ncc(C4(C#N)CC4)cc3S(=N)(=O)CC)n(C)c2c1=O (single isomer, unassigned) [Compound P14-B, 1-[6-[5-ethyl-3-methyl-4-oxo-6-(trifluoromethyl)imidazo[4,5-c]pyridin-2-yl]-5-(ethylsulfonimidoyl)-3-pyridyl]cyclopropanecarbonitrile] | – | – | – | – | – | ≥ 80% | Mortality (%) ([7]; concentration 50 ppm): 50%
11 | CCS(=N)(=O)c1cc(OC(C)(C)C#N)cnc1-c1nc2cc(C(F)(F)F)n(C3CC3)c(=O)c2n1C (single isomer, unassigned) [Compound P1-B, 2-[[6-[5-cyclopropyl-3-methyl-4-oxo-6-(trifluoromethyl)imidazo[4,5-c]pyridin-2-yl]-5-(ethylsulfonimidoyl)-3-pyridyl]oxy]-2-methyl-propanenitrile] | – | ≥ 80% | – | – | ≥ 80% | – | –
12 | CCS(=N)(=O)c1cc(C2(C#N)CC2)cnc1-c1nc2cc(C(F)(F)F)ncc2n1C (racemic) [Compound P10, 1-[5-(ethylsulfonimidoyl)-6-[3-methyl-6-(trifluoromethyl)imidazo[4,5-c]pyridin-2-yl]-3-pyridyl]cyclopropanecarbonitrile] | ≥ 80% | – | ≥ 80% | ≥ 80% | ≥ 80% | ≥ 80% | –
13 | CCS(=N)(=O)c1cc(C2(C#N)CC2)cnc1-c1nc2cc(C(F)(F)F)cnc2n1C (single isomer, unassigned) [Compound P16-B, 1-[5-(ethylsulfonimidoyl)-6-[3-methyl-6-(trifluoromethyl)imidazo[4,5-b]pyridin-2-yl]-3-pyridyl]cyclopropanecarbonitrile] | – | – | – | – | – | ≥ 80% | Mortality (%) ([1]; concentration 12.5 ppm): 80%; percent control (mortality, anti-feedant effect or growth inhibition) at 200 ppm [4]: ≥ 80%; Mortality (%) ([6]; concentration 3.125 ppm): 100%
